# Results as given in US9187464B2, “TRPV4 antagonists” (GlaxoSmithKline Intellectual Property (No. 2) Limited, priority 2011, dated 2015).
# pIC50: −log10 of the molar value.
# Biological target: T1, human TRPV4 (Homo sapiens, UniProt Q9HBA0)
# T1 construct: expressed in transfected cells; host or cells: HEK-293-MSR-II cells transduced with 1% BacMam virus
# Test: Ligand-gated assay (Fluo4 calcium, FLIPR; inhibition of agonist-induced activation)
# Format: cell-based
# Conditions: HEK-293-MSR-II cells transduced with BacMam human TRPV4; agonist at EC80
# Description: TRP channel activation/opening results in an influx of divalent and monovalent cations including calcium. The resulting changes in intracellular calcium were monitored using a calcium selective fluorescent dye Fluo4 (MDS Analytical Technologies). Dye loaded cells were initially exposed to test compound to verify a lack of agonist activity. Cells were subsequently activated by addition of an agonist and inhibition of the agonist-induced activation was recorded. Human embryonic kidney 293 cells stably expressing the macrophage scavenger receptor class II (HEK-293-MSR-II) and transduced with 1% BacMam (J. P. Condreay, S. M. Witherspoon, W. C. Clay and T. A. Kost, Proc Natl Acad Sci 96 (1999), pp. 127-132) virus expressing the human TRPV4 gene were plated at 15000 cells/well in a volume of 50 μL in a 384 well poly-D lysine coated plate. Cells were incubated for 24 hours at 37 degrees and 5% CO2. Media was then aspirated using a Tecan Plate-washer and replaced with 20 μL of dye loading buffer: HBSS, 500 uM Brilliant Black (MDS Analytical Technologies), 2 uM Fluo-4. Dye loaded plates were then incubated in the dark at room temperature for 1-1.5 hours. 10 μL of test compound diluted in HBSS (HBSS with 1.5 mM Calcium Chloride, 1.5 mM Magnesium Chloride and 10 mM HEPES. pH 7.4), +0.01% Chaps was added to the plate, incubated for 10 min at room temperature in the dark and then 10 μL of agonist was added at a final concentration equal to the agonist EC80. Calcium release was measured using the FLIPRtetra (MDS Analytical Technologies) or FLIPR384 (MDS Analytical Technologies).
# IC50 between 0.1-10 nM (+++), >10-50 nM (++), >50-500 nM (+).
# T1 sequence (Q9HBA0 whole entry): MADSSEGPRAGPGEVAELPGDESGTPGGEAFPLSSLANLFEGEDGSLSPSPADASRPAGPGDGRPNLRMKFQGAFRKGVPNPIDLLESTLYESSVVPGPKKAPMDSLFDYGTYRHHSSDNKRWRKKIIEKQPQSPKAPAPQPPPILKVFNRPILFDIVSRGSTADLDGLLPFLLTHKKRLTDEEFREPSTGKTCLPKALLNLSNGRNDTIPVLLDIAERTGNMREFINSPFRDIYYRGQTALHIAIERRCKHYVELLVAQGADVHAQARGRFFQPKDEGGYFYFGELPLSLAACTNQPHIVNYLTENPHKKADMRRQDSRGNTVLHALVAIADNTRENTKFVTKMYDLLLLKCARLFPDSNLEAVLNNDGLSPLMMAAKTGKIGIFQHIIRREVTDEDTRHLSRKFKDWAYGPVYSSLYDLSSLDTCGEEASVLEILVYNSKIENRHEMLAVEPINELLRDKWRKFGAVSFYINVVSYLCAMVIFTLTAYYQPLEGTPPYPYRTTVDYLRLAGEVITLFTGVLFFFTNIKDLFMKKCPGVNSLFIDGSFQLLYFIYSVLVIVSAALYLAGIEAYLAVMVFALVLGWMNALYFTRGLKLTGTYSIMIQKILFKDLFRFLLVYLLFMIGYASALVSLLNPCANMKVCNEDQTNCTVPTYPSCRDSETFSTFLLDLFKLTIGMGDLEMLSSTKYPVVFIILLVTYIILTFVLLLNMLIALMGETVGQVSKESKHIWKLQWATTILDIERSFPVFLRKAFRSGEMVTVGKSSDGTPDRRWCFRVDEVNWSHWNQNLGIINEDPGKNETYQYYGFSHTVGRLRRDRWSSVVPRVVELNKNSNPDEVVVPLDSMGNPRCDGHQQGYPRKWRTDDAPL
row,Structure (SMILES),pIC50
1,"N#Cc1ccc2ccn(C[C@H]3CCC[C@]4(C3)CN(Cc3csc5ccc(Cl)cc35)C(=O)O4)c2c1 (stereo in doubt) [Example 59, 1-({3-[(5-chloro-1-benzothien-3-yl)methyl]-2-oxo-1-oxa-3-azaspiro[4.5]dec-7-yl}methyl)-1H-indole-6-carbonitrile]",6.30 to 7.30
2,"N#Cc1cc(F)cc(-n2cc(CN3CC4(CCC[C@H](Cn5cnc6ccc(C#N)cc65)C4)OC3=O)nn2)c1 (stereo in doubt) [Example 103, 1-[((5S,7S)-3-{[1-(3-cyano-5-fluorophenyl)-1H-1,2,3-triazol-4-yl]methyl}-2-oxo-1-oxa-3-azaspiro[4.5]dec-7-yl)methyl]-1H-benzimidazole-6-carbonitrile]",8.00 to 10.00
3,"C[C@]1(Cn2cnc3ccc(C#N)cc32)CCCC2(CN(Cc3cc(F)ccn3)C(=O)O2)C1 (stereo in doubt) [Example 158, 1-(((5S,7S)-3-((4-fluoropyridin-2-yl)methyl)-7-methyl-2-oxo-1-oxa-3-azaspiro[4.5]decan-7-yl)methyl)-1H-benzo[d]imidazole-6-carbonitrile]",8.00 to 10.00
4,"CC(C)(C)c1cc(N2C[C@@]3(CCC[C@](C)(Cn4cnc5ccc(C#N)cc54)C3)OC2=O)no1 [Example 3, 1-({(5S,7S)-3-[5-(1,1-Dimethylethyl)-3-isoxazolyl]-7-methyl-2-oxo-1-oxa-3-azaspiro[4.5]dec-7-yl}methyl)-1H-benzimidazole-6-carbonitrile]",8.00 to 10.00
5,"N#Cc1ccc2ncn(C[C@H]3CCC[C@]4(C3)CN(Cc3cn(-c5cncc(C(F)(F)F)c5)nn3)C(=O)O4)c2c1 [Example 9, 1-{[(5S,7S)-2-Oxo-3-({1-[5-(trifluoromethyl)-3-pyridinyl]-1H-1,2,3-triazol-4-yl}methyl)-1-oxa-3-azaspiro[4.5]dec-7-yl]methyl}-1H-benzimidazole-6-carbonitrile]",8.00 to 10.00
6,"CC(C)(C)c1noc(N2C[C@@]3(CCC[C@](C)(Cn4cnc5ccc(C#N)cc54)C3)OC2=O)c1Cl [Example 10, 1-({(5S,7S)-3-[4-Chloro-3-(1,1-dimethylethyl)-5-isoxazolyl]-7-methyl-2-oxo-1-oxa-3-azaspiro[4.5]dec-7-yl}methyl)-1H-benzimidazole-6-carbonitrile]",8.00 to 10.00
7,"CCOc1ccc(N2C[C@@]3(CCC[C@](C)(Cn4cnc5ccc(C#N)cc54)C3)OC2=O)cn1 [Example 12, ′1-({(5S,7S)-3-[6-(Ethyloxy)-3-pyridinyl]-7-methyl-2-oxo-1-oxa-3-azaspiro[4.5]dec-7-yl}methyl)-1H-benzimidazole-6-carbonitrile]",8.00 to 10.00
8,"CCn1ncc(N2C[C@@]3(CCC[C@](C)(Cn4cnc5ccc(C#N)cc54)C3)OC2=O)c1C [Example 16, 1-(((5S,7S)-3-(1-Ethyl-5-methyl-1H-pyrazol-4-yl)-7-methyl-2-oxo-1-oxa-3-azaspiro[4.5]decan-7-yl)methyl)-1H-benzo[d]imidazole-6-carbonitrile]",8.00 to 10.00
9,"COc1cnc(N2C[C@@]3(CCC[C@](C)(Cn4cnc5ccc(C#N)cc54)C3)OC2=O)cn1 [Example 17, 1-(((7S)-3-(5-Methoxypyrazin-2-yl)-7-methyl-2-oxo-1-oxa-3-azaspiro[4.5]decan-7-yl)methyl)-1H-benzo[d]imidazole-6-carbonitrile]",7.30 to 8.00
10,C[C@]1(Cn2cnc3ccc(C#N)cc32)CCC[C@@]2(CN(c3ccc(Cl)nc3)C(=O)O2)C1 [Example 18],7.30 to 8.00
11,"CN(C)c1ccc(N2C[C@@]3(CCC[C@](C)(Cn4cnc5ccc(C#N)cc54)C3)OC2=O)cn1 [Example 19, 1-(((5S,7S)-3-(6-(Dimethylamino)pyridin-3-yl)-7-methyl-2-oxo-1-oxa-3-azaspiro[4.5]decan-7-yl)methyl)-1H-benzo[d]imidazole-6-carbonitrile]",8.00 to 10.00
12,"CC(C)(C)OC(=O)OCC(C)(C)c1cc(N2C[C@@]3(CCC[C@](C)(Cn4cnc5ccc(C#N)cc54)C3)OC2=O)on1 [Example 20, Tert-butyl (2-(5-((5S,7S)-7-((6-cyano-1H-benzo[d]imidazol-1-yl)methyl)-7-methyl-2-oxo-1-oxa-3-azaspiro[4.5]decan-3-yl)isoxazol-3-yl)-2-methylpropyl) carbonate]",8.00 to 10.00

# Other lines, results leading:
row,pIC50,Structure (SMILES)
1,8.00 to 10.00,"C[C@]1(Cn2cnc3ccc(C#N)cc32)CCC[C@@]2(CN(Cc3csc4ncccc34)C(=O)O2)C1 (relative stereo) [Example 152, 1-{[(trans)-7-methyl-2-oxo-3-(thieno[2,3-b]pyridin-3-ylmethyl)-1-oxa-3-azaspiro[4.5]dec-7-yl]methyl}-1H-benzimidazole-6-carbonitrile]"
2,6.30 to 7.30,"N#Cc1ccc2nc(C(F)(F)F)n(C[C@H]3CCC[C@]4(C3)CN(Cc3csc5ccc(Cl)cc35)C(=O)O4)c2c1 (stereo in doubt) [Example 60, 1-({3-[(5-chloro-1-benzothien-3-yl)methyl]-2-oxo-1-oxa-3-azaspiro[4.5]dec-7-yl}methyl)-2-(trifluoromethyl)-1H-benzimidazole-6-carbonitrile]"
3,7.30 to 8.00,"N#Cc1ccc2ncn(C[C@H]3CCC[C@]4(C3)CN(Cc3csc5ccccc35)C(=O)O4)c2c1 (stereo in doubt) [Example 62, 1-{[3-(1-benzothien-3-ylmethyl)-2-oxo-1-oxa-3-azaspiro[4.5]dec-7-yl]methyl}-1H-benzimidazole-6-carbonitrile]"
4,8.00 to 10.00,"CCOc1ccc(CN2CC3(CCC[C@](C)(Cn4cnc5ccc(C#N)cc54)C3)OC2=O)nc1 (stereo in doubt) [Example 157, 1-(((5S,7S)-3-((5-ethoxypyridin-2-yl)methyl)-7-methyl-2-oxo-1-oxa-3-azaspiro[4.5]decan-7-yl)methyl)-1H-benzo[d]imidazole-6-carbonitrile]"
5,7.30 to 8.00,"CC(C)(C)c1cc(N2C[C@@]3(CCC[C@](C)(Cn4cnc5ccc(C#N)cc54)C3)OC2=O)on1 [Example 1, 1-({(5S,7S)-3-[3-(1,1-Dimethylethyl)-5-isoxazolyl]-7-methyl-2-oxo-1-oxa-3-azaspiro[4.5]dec-7-yl}methyl)-1H-benzimidazole-6-carbonitrile]"
6,8.00 to 10.00,CC(C)(C#N)c1cc(N2C[C@@]3(CCC[C@](C)(Cn4cnc5ccc(C#N)cc54)C3)OC2=O)on1 [Example 2]
7,8.00 to 10.00,"C[C@]1(Cn2cnc3ccc(C#N)cc32)CCC[C@@]2(CN(Cc3ccccn3)C(=O)O2)C1 [Example 4, 1-{[(5S,7S)-7-Methyl-2-oxo-3-(2-pyridinylmethyl)-1-oxa-3-azaspiro[4.5]dec-7-yl]methyl}-1H-benzimidazole-6-carbonitrile]"
8,8.00 to 10.00,"CC(C)(CN1C[C@@]2(CCC[C@H](Cn3cnc4ccc(C#N)cc43)C2)OC1=O)c1nnc(-c2ccccc2)o1 [Example 5, 1-({(5S,7S)-3-[2-Methyl-2-(5-phenyl-1,3,4-oxadiazol-2-yl)propyl]-2-oxo-1-oxa-3-azaspiro[4.5]dec-7-yl}methyl)-1H-benzimidazole-6-carbonitrile]"
9,8.00 to 10.00,"CCc1noc(C(C)(C)CN2C[C@@]3(CCC[C@H](Cn4cnc5ccc(C#N)cc54)C3)OC2=O)n1 [Example 6, 1-({(5S,7S)-3-[2-(3-Ethyl-1,2,4-oxadiazol-5-yl)-2-methylpropyl]-2-oxo-1-oxa-3-azaspiro[4.5]dec-7-yl}methyl)-1H-benzimidazole-6-carbonitrile]"
10,6.30 to 7.30,"CC1(CN2C[C@@]3(CCC[C@H](Cn4cnc5ccc(C#N)cc54)C3)OC2=O)CCN(c2ncccn2)C1 (stereo partly drawn) [Example 7, 1-[((5S,7S)-3-{[3-Methyl-1-(2-pyrimidinyl)-3-pyrrolidinyl]methyl}-2-oxo-1-oxa-3-azaspiro[4.5]dec-7-yl)methyl]-1H-benzimidazole-6-carbonitrile]"
11,8.00 to 10.00,"C[C@]1(Cn2cnc3ccc(C#N)cc32)CCC[C@@]2(CN(Cc3cn(-c4ccccc4)nn3)C(=O)O2)C1 [Example 8, 1-({(5S,7S)-7-Methyl-2-oxo-3-[(1-phenyl-1H-1,2,3-triazol-4-yl)methyl]-1-oxa-3-azaspiro[4.5]dec-7-yl}methyl)-1H-benzimidazole-6-carbonitrile]"
12,7.30 to 8.00,"C[C@]1(Cn2cnc3ccc(C#N)cc32)CCC[C@@]2(CN(c3ccc(C(F)(F)F)cn3)C(=O)O2)C1 [Example 11, 1-({(5S,7S)-7-Methyl-2-oxo-3-[5-(trifluoromethyl)-2-pyridinyl]-1-oxa-3-azaspiro[4.5]dec-7-yl}methyl)-1H-benzimidazole-6-carbonitrile]"
13,8.00 to 10.00,COc1ccc(N2C[C@@]3(CCC[C@](C)(Cn4cnc5ccc(C#N)cc54)C3)OC2=O)cn1 [Example 13]
14,8.00 to 10.00,"CCOc1cnc(N2C[C@@]3(CCC[C@](C)(Cn4cnc5ccc(C#N)cc54)C3)OC2=O)cn1 [Example 14, 1-(((5S,7S)-3-(5-Ethoxypyrazin-2-yl)-7-methyl-2-oxo-1-oxa-3-azaspiro[4.5]decan-7-yl)methyl)-1H-benzo[d]imidazole-6-carbonitrile]"
15,8.00 to 10.00,"COc1cc(C)c(N2C[C@@]3(CCC[C@](C)(Cn4cnc5ccc(C#N)cc54)C3)OC2=O)cn1 [Example 15, 1-(((5S,7S)-3-(6-Methoxy-4-methylpyridin-3-yl)-7-methyl-2-oxo-1-oxa-3-azasbiro[4.5]decan-7-yl)methyl)-1H-benzo[d]imidazole-6-carbonitrile]"
